Data: patent US6608111B1, “Method for treating or preventing prostatic conditions” (Southern Illinois University Office of Research, …, priority 1998, dated 2003)

Assays:
[1] = system: primary porcine granulosa cells; assay: In situ apoptosis assay in primary porcine granulosa cells; assay type: cell-based; details: for mean apoptosis (% area): 24 hr treatment, 0.1, 1 and 10 μM combined, serum-free MEM, controls 63.4% / 68.4%
Description: Porcine ovaries were obtained from local packing plants and transported to the laboratory on ice-cold Hank's balanced salt solution (HBSS). Each of the follicles was aspirated with an insulin syringe, and the follicular fluid was centrifuged at 3000 rpm and 4° C. for 15 min. The supernatant was poured off and the cells were washed in 5 mls of cold HBSS and centrifuged for another 10 min. The cells were again resuspended in HBSS, and the number of viable cells counted under the microscope using a hematocytometer. Once the number of cells was determined, the cells were centrifuged again for 10 min. and resuspended in the appropriate volume of Eagle's minimum essential media (MEM) containing 10% fetal bovine serum (FBS) and antibiotic/antimycotics. The cells were plated at 250,000 per well in 8 chamber microscope slides (Nunc, Naperville, Ill.) which were pre-treated with poly-L-lysine for 10 min. The slides were incubated at 5% CO2/95% air at 37° C. Approximately 12 hours later, the medium was removed by vacuum and replaced with pre-warmed, serum-free MEM. Cells were then treated for 2-3 hrs with MEM only to wash out any estrogen effects from the serum (Winters et al. (1994) Biol. Reprod. 50 (Suppl. 1):113; Suttner et al. (1998) Biol. Reprod. 59 (Suppl.): (Accepted for publication). Following serum-free MEM treatment, cells were treated for 24 hr with (+) or (−) enantiomers of Z-BDDA or estradiol at 0. 1, 1, and 10 μM, or EtOH vehicle control in serum-free MEM. Cells were subsequently processed using an in situ apoptosis assay kit (Apotag-Plus In Situ Apoptosis Kit-Peroxidase, Edition 1.1., Oncor, Gaithersburg, Md., 1995) to study ovarian apoptosis (Suttner et al., 1998). The slides were washed in two changes of PBS for 5 min each, and then quenched in 2% hydrogen peroxide in methanol for 5 min. at room temperature. After pre-treatment with an equilibration buffer, 13 ul of Terminal deoxynucleotidyl Transferase (TdT) diluted with reaction buffer and distilled water were added, and the slides were incubated for 1 h at 37° C. in a humidified chamber. After this 1 h period, the slides were put in pre-warmed stop wash buffer in the incubator for 30 min to stop the reaction. Next, the slides were washed in three changes of PBS for 5 min. each, and the anti-digoxigenin peroxidase was placed on the slides for 30 min. in a humidified chamber at room temperature. […] The degree of apoptosis for the calorimetric apoptosis assay was quantified microscopically using an image analysis system (Optimas 5.23, Optimas Users Guide, 5th Edition, Redmond, Wash.). Ten measurements (captured images) were taken for each concentration based on a pre-determined grid. […] Percentage area of each color was then quantitated using the image analysis system. […]

[2] = system: female mice; details: E2 5 g/animal/day, (±)-Z-BDDA 5, 50, and 500 g/animal/day, versus control group; cited from earlier work
[3] = system: estrogen receptors ERα and ERβ; details: direct receptor binding assays or dose-response profiles of estrogen-responsive reporter genes in cell culture; cited from earlier work

Compound	percent apoptosis ([1]; 24 hr treatment at 10 μM)	mean apoptosis (% area) [1]	rate of weight gain [2]	binding affinity for estrogen receptors [3]
C[C@]12CCC3c4ccc(O)cc4CCC3[C@@H]1CCC2O (single isomer, unassigned; (+)) [estradiol, (+)-17β-estradiol, reference compound]	23.8%	46.5%	increased	
CC[C@H]1c2ccc3cc(O)ccc3c2CC[C@@]1(C)C(=O)O [(+)-Z-BDDA, (+)-Z-bisdehydrodoisynolic acid]		61.1%		even lower than that of the (−) enantiomer
